We go through two compounds from patent US5922891A, “2-substituted 1,8-dihydroxy-9(10H)-anthracenone pharmaceuticals” (priority 1997, dated 1999).

The conditions of data set [1]: cited from earlier work.
The conditions of data set [2]: psoriasis therapy; cited from earlier work.
Data set [3] relates to HaCaT cells. Put plainly: Antiproliferative activity against HaCaT cells (human keratinocyte cell line). Format: cell-based. To be noted: 48 h, read-out: AA IC50 (antiproliferative activity).
In data set [4] the test system is LTB4 production in human neutrophils. To be noted: depending on cell density, read-out: IC50, inhibition of LTB4 production, human neutrophils; cited from earlier work.
The nature of data set [5]: Deoxyribose degradation as a measure of hydroxyl radical formation. Format: biochemical. To be noted: 75 μM test compound; controls < 0.1.
Data set [6] has as its system HaCaT cells. To be noted: cited from earlier work.
In a further data set the target is T1, 5-LO in bovine PMNL (Bos taurus, UniProt F1MQ78).
T1 construct: The purified PMNLs were suspended at a concentration of; endogenous in cells; host or cells: polymorphonuclear leukocytes isolated from bovine blood
T1 sequence (F1MQ78 1-674): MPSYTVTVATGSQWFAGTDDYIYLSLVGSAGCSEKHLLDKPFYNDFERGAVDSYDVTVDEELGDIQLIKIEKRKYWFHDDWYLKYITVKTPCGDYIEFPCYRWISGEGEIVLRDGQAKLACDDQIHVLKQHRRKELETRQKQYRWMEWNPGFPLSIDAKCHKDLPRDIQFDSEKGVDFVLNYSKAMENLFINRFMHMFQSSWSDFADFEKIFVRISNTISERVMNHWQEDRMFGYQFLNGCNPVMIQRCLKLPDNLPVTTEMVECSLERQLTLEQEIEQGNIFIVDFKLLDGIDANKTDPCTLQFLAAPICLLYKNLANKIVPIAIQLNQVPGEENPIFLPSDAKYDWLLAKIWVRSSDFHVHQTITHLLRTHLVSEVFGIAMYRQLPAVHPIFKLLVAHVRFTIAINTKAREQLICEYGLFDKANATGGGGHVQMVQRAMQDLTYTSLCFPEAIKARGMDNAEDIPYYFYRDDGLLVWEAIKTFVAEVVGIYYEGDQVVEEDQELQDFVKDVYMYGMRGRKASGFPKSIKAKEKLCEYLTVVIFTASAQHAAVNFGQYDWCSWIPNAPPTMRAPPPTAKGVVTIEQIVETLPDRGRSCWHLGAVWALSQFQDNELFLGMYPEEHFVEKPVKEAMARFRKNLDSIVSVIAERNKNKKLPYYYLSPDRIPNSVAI
Kind of data set: Inhibition of 5-lipoxygenase (5-HETE and LTB4 biosynthesis) in Ca-ionophore-stimulated bovine PMNL. It is filed as cell-based. How it is done:
Briefly, PMNLs were prepared from sodium EDTA-anticoagulated bovine blood, essentially as described by Walstra, P. et al., (Biochem. Biophys. Acta, 795:499-503 (1984)). Contaminating platelets were removed by repeated centrifugations at 100 g for 20 minutes. […] Cell counts were conducted with a Sysmex micro cell counter CC-130. Preincubation was performed with 2.4 ml of the suspension and 10 μl of a DMSO stock solution of test compounds at the desired concentrations in phosphate buffered saline (PBS) or vehicle control (DMSO at final concentration of 0.4%) for 15 minutes at 37° C. in a shaking water bath at 50 rpm. […] The incubation mixture was held on ice bath for 20 minutes and then centrifuged at 4000 g for 5 minutes at 0° C. The supernatant was diluted with 5 ml of water and passed through a prewashed (10 ml of methanol and 5 ml of water, sequentially) octadecylsilane reversed phase cartridge (Baker). The eicosanoids were eluted with 3 ml of methanol, diluted with 3 ml of water and subjected to reversed phase HPLC analysis using a 250×4 mm column packed with Nucleosil C18 (7 μm particles; Bischoff, Leonberg, Germany). The isocratic elution conditions of LTB4 were tetrahydrofuran (THF)/methanol/water/acetic acid (25+30+45+0.1), adjusted to pH 5.5 with concentrated NH3, at a flow rate of 0.9 ml/min (Kontron 420 pump), monitored at 280 nm with a Kontron 735 LC UV detector. 5-HETE was monitored at 232 nm using methanol/water/acetic acid (77+23+0.1), pH 5.5 and a flow rate 1.0 ml/min. Data were recorded on a MacLab data acquisition system (WissTech, Germany) and analysis was performed using the application Peaks on an Apple Macintosh Quadra 700 computer. Integrated areas of the peaks were compared to a PGB2 internal standard and to external standards of authentic samples. Molar absorption coefficients of Samuelsson et al., Borgeat, P. and B. Samuelsson, (Proc. Natl. Acad. Sci. USA, 76:2148-2152 (1979)), were used for making calculations. Inhibition was calculated by a comparison of the mean value of test compound (n=3) with control (n=6-8) activity: (1-test compound/control)×100.
See Walstra, P. et al., Biochem Biophys. Acta, 795:499-503 (1984); and Dannhardt et al. J. Pharm. Pharmacol., 44:419-424 (1992). […] (Schroder, J. M., J. Invest. Dermatol., 87:624-629 (1986); Tanzer, et al., Arch. Pharm. (Weinheim), 324:841-846 (1991)).

Data set [7] can be described thus: Inhibition of AAPH-induced lipid peroxidation in bovine brain phospholipid liposomes. Format: biochemical. To be noted: AAPH-induced; bovine brain phospholipid liposomes; N = 3 or more; read-out: LPO IC50 (inhibition of lipid peroxidation). The method, then:
Phospholipids were prepared essentially as described by Gutteridge, J. M. C., (Anal. Biochem., 82: 76-82 (1977)). Bovine brain tissue was cooled on ice, freed from blood vessels and washed repeatedly with 0.15 M NaCl, pH 7.4. The tissue was cut into pieces and then macerated with an ultra-turrax, passed through a fine-meshed sieve, and extracted four times with four times the volume of acetone. The extraction mixture was filtered by suction to remove the acetone, the residue dried under vacuum, and then repeatedly extracted with petroleum ether (40-60) using twice the volume of the original brain homogenate. The combined extracts were filtered, dried at 45° C., and dissolved in ether (one fifth the original brain volume). The mixture was treated with five times the volume of acetone, and the resulting precipitate was collected by suction-filtration, dried and stored under N2 at -20° C. in the dark. Bovine brain phospholipids were weighed into glass tubes and shaken in a vortex mixer (Heidolph) in the presence of five small glass beads (.phi. 4 mm) for 1 minute. The phospholipids were suspended in 0.15 M NaCl, pH 7.4, to a final concentration of 5 mg/ml. The mixture was purged with N2 for 1 minute and vigorously dispersed in a vortex mixer for 5 minutes. The liposomes were allowed to swell for 1 hour at 4° C., and vesicles with a mean size of 1-10 μm were obtained according to the method of Bangham, et al., (J. Mol. Biol., 13:238-252 (1965). The liposomes were stimulated with the azo initiator 2 2'-azobis (2-amidinopropane) hydrochloride according to the method of Gutteridge, J. M. C., (Anal. Biochem. 82:76-82 (1977)).
The following reagents were added to the glass tubes containing stimulating bovine brain phospholipid piposomes in the order and at the final concentrations listed: 0.3 ml HK2 PO4 --KOH buffer, pH 7.4 (30 mM), 0.29 ml double distilled H2 O, 0.2 ml liposomes (1 mg/ml), 0.2 ml FeCl3.H2 O (0.1 mM), 0.01 ml 2-substituted anthracenone compound of the invention (variable concentrations).
Appropriate blanks and controls using the vehicle (acetone) were conducted. The final reaction volumes were standardized to 1.0 ml. The reaction mixtures were incubated for 1 hour at 37° C. in a shaking water bath. […] of 20% (w/v) BHT, 0.5 ml 25% (w/v) HCl and 0.5 ml of 1% 2-thiobarbituric acid were added and the samples were heated at 100° C. for 15 minutes and then cooled in an ice bath (5 minutes). 2 ml of 1-butanol were added and the mixtures were vigorously shaken in a vortex mixer (Heidolph) for 15 seconds. The organic layer was separated by centrifugation at 3000 rpm (15 minutes) and absorbance at 532 nm was measured against butanol.

Read-outs that look alike come from different tables or passages of the source.

Turning to `O=C1c2c(O)cccc2Cc2cccc(O)c21` [anthralin], the “lipid peroxidation in the presence of iron” value in data set [1] is recorded as “enhancement of anthralin-induced lipid peroxidation in the presence of iron”. Also, the “side effects of anthralin therapy” value in data set [2] was “increased inflammation and irritation of non-effected skin surrounding treated lesions”. In addition, the IC50 was 0.5 to 0.7 µM in the data set on HaCaT cells [3] and 7 to 74 µM in data set [4]. For the same compound, the “DD (deoxyribose degradation, malondialdehyde released)” value in data set [5] was 2.89 ± 0.14 μmol of MDA/mmol. Moreover, the “sensitivity of HaCaT cells to antiproliferative action” value in the data set on HaCaT cells [6] was “extremely sensitive target for the antiproliferative action of anthralin”.

Take `CCCCOc1ccc(CC(=O)NO)cc1` [bufexamac, reference compound]: the IC50 against 5-LO in bovine PMNL (N = 3 or more) is > 30 µM; on 5-LO in bovine PMNL (comparison with compounds of the invention, read-out: IC50), > 30 µM; with HaCaT cells [3] it was > 5 µM; in data set [7], > 200 µM.

A word on the IC50: it is the concentration that inhibits the measured activity by half.
